Experimental data taken from article PMC8322648, “Brevibacillin 2V Exerts Its Bactericidal Activity via Binding to Lipid II and Permeabilizing Cellular Membranes” (Frontiers in Microbiology, 2021).

Columns and labels:
[1] = system: membrane of Gram-positive bacteria; settings: ref Yang et al., 2017; cited from earlier work
Text: A vast number of bacterial non-ribosomally produced peptides (NRPs) have shown strong antimicrobial activity against pathogenic bacteria ([Cochrane et al., 2014]; [Cociancich et al., 2015]; [Hamamoto et al., 2015]; [Ling et al., 2015]; [Süssmuth and Mainz, 2017]). Lipo-tridecapeptides, a class of NRPs, show strong antimicrobial activity against Gram-positive pathogens, including antibiotic-resistant Staphylococcus aureus and Enterococcus spp. ([Barsby et al., 2001], [2006]; [Yang et al., 2016]; [Wu et al., 2019]; [Zhao et al., 2021]). However, many of these lipo-tridecapeptides have shown high ...

[2] = 31P solid-state NMR of Lipid II in liposomes; type: binding; settings: combined ssNMR, CD and ITC assays
Protocol: Multi-lamellar vesicles of DOPC doped with 2 mol % Lys-Lipid II in buffer (20 mm HEPES, 100 mm NaCl, and pH = 8) were collected by centrifugation (60,000 × g) and loaded into 3.2 mm ssNMR rotors. For 3.2 mm rotors, we used 200 nmol of antibiotic with 100 nmol of Lipid II. The 1D ^31P ssNMR experiments were performed at 500 MHz (^1H frequency) magnetic field using 10 kHz magic angle spinning (MAS) at 270 K sample temperature.

[3] = ref Zhao et al., 2021; cited from earlier work

| Substance | membrane permeabilization [1] | Lipid II binding site [2] | stability in human plasma [3] |
| --- | --- | --- | --- |
| Brevibacillin | can permeabilize the membrane of Gram-positive bacteria | – | – |
| Brevibacillin 2V | – | binds to the GlcNAc-MurNAc moiety and/or the pentapeptide of Lipid II | good stability in human plasma |
